How the values were obtained:
[1] = biological target: T1, vasopressin V2 receptor (rat kidney medullary) (Rattus norvegicus, UniProt Q00788); assay: Binding Assay to Rat Kidney Medullary V2 Receptors
T1 construct: Medullary tissues from rat kidneys are dissected out; from tissue; host or cells: rat kidney medulla membranes
Method: Binding Assay to Rat Kidney Medullary V2 Receptors
Medullary tissues from rat kidneys are dissected out, cut into small pieces and soaked in a […] sodium chloride solution containing 1.0 mM EDTA with many changes of the liquid phase, until the solution is clear of blood. […] The tissue is homogenized in a 0.25M sucrose solution containing 1.0 mM EDTA and 0.1 mM PMSF using a Potter-Elvehjem homogenizer with a teflon pestle. The homogenate is filtered through several layers (4 layers) of cheese cloth. The filtrate is rehomogenized using a dounce homogenizer, with a tight fitting pestle. The final homogenate is centrifuged at 1500×g for 15 min. The nuclear pellet is discarded and the supernatant fluid recentrifuged at 40,000×g for 30 min. The resulting pellet formed contains a dark inner part with the exterior, slightly pink. The pink outer part is suspended in a small amount of 50.0 mM Tris.HCl buffer, pH 7.4. The protein content is determined by the Lowry's method (Lowry et al., J. Biol. Chem., 1953). The membrane suspension is stored at -70° C., in 50.0 mM Tris.HCl, containing 0.2% inactivated BSA and 0.1 mM PMSF in aliquots of 1.0 ml containing 10.0 mg protein per ml of suspension until sue in subsequent binding experiments.
For binding experiments, the following is added in ml volume to wells of a 96 well format of a microtiter plate: 100.0 ml of 100.0 mM Tris.HCl buffer containing 0.2% heat inactivated BSA, 10.0 mM MgCL2 and a mixture of protease inhibitors: leupeptin, 1.0 mg %; aprotinin, 1.0 mg % 1,10-phenanthroline, 2.0 mg %; trypsin inhibitor, and 0.1 mM PMSF, 20.0 ml of [^3 H] Arginine^8, vasopressin (S.A. 75.0 Ci/mmole) at 0.8 nM and the reaction initiated by the addition of 80.0 ml of tissue membranes (200.0 mg tissue protein). The plates are left undisturbed on the bench top for 120 minutes to reach equilibrium. Non-specific binding is assessed in the presence of 1.0 mM of unlabeled ligand, added in 20 ml volume. For test compounds, these are solubilized in 50% dimethylsulfoxide (DMSO) and added in 20.0 ml volume to a final incubation volume of […]. Upon completion of binding, the content of each well is filtered off, using a Brandel® cell Harvester (Gaithersburg, Md.). The radioactivity trapped on the filter disk by the ligand-receptor complex is assessed by liquid scintillation counting in a Parkard LS Counter, with an efficiency of 65% for tritium.

[2] = biological target: T2, vasopressin V1 receptor (rat liver plasma membranes) (Rattus norvegicus, UniProt P30560); assay: Binding Assay to Rat Hepatic V1 Receptors
T2 construct: Rat liver plasma membranes expressing the vasopressin V1 receptor subtypes; from tissue; host or cells: rat liver plasma membranes
Method: Binding Assay to Rat Hepatic V1 Receptors
Rat liver plasma membranes expressing the vasopressin V1 receptor subtypes are isolated by sucrose density gradient according to the method described by Lesko et al., (1973). These membranes are quickly suspended in 50.0 mM Tris.HCl buffer, pH 7.4, containing 0.2% bovine serum albumin (BSA) and 0.1 mM phenylmethylsulfonylfluoride (PMSF) and kept frozen at -70° C. until used in subsequent binding experiments. For binding experiments, the following is added to the wells of a ninety-six well format microtiter plate: […] of […] buffer containing 10.0 mM MgCl2, 0.2% heat inactivated BSA and a mixture of protease inhibitors: leupeptin, 1.0 mg %; aprotinin, 1.0 mg %; 1,10-phenanthroline,2.0 mg %; trypsin inhibitor, 10.0 mg % and 0.1 mM PMSF, 20.0 ml of [phenylalanyl-3,4,5, -^3 H] vasopressin (S.A. 45.1 Ci/mmole) […], and the reaction initiated by the addition of 80 ml of tissue membranes containing 20 mg of tissue protein. The plates are kept undisturbed on the bench top at room temperature for 120 min. to reach equilibrium. Non-specific samples are assayed in the presence of 0.1 mM of the unlabeled […] phenylalanylvasopressin, added in 20.0 ml volume.
For test compounds, these are solubilized in 50% dimethylsulfoxide (DMSO) and added in 20.0 ml volume to a final incubation volume of […]. Upon completion of binding, the content of each well is filtered off, using a Brandel® cell Harvester (Gaithersburg, Md.). The radioactivity trapped on the filter disk by the ligand-receptor complex is assessed by liquid scintillation counting in a Packard LS Counter, with an efficiency of 65% for tritium.

[3] = biological target: T3, oxytocin receptor (rat uteri) (Rattus norvegicus, UniProt P70536); assay: Oxytocin Receptor Binding; parameters: species or system rat (Sprague-Dawley); details: for IC50: [3H]oxytocin displacement
T3 construct: The uteri are dissected out, cleaned of fat and connective tissues; from tissue; host or cells: uteri of diethylstilbestrol-treated female Sprague-Dawley rats
T3 sequence (P70536 1-388): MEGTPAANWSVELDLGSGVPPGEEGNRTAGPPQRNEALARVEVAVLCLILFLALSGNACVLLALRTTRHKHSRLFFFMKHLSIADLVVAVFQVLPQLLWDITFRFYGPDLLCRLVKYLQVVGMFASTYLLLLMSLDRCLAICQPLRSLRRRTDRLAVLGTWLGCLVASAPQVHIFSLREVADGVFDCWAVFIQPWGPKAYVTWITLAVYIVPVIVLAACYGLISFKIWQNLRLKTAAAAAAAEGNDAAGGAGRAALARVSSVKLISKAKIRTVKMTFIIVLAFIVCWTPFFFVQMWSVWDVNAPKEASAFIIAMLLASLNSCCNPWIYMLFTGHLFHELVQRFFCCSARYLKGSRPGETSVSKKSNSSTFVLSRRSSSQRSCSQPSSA
Method: Oxytocin Receptor Binding
Female Sprague-Dawley rats weighing approximately 200-250 g are injected intramuscularly (i.m.) with 0.3 mg/kg of body weight of diethylstilbestrol (DES). The rats are sacrificed 18 hours later under pentobarbital anesthesia. The uteri are dissected out, cleaned of fat and connective tissues and rinsed in 50 ml of normal saline. The tissue pooled from six rats is homogenized in 50 ml of […] Tris. HCl, containing 0.5 mM dithiothreitol and 1.0 mM EDTA, adjusted to pH 7.4, using a polytron at setting 6 with three passes of 10 sec each. The homogenate is passed through two (2) layers of cheesecloth and the filtrate centrifuged at 1000×g for 10 minutes. The clear supernatant is removed and recentrifuged at 165,000×g for 30 minutes. The resulting pellet containing the oxytocin receptors is resuspended in 50.0 mM Tris.HCl containing 5.0 mM MgCl2 at pH 7.4, to give a protein concentration of 2.5 mg/ml of tissue suspension. This preparation is used in subsequent binding assays with [^3 H]oxytocin.
Binding of 3,5-[^3 H]Oxytocin ([^3 H]OT) to its receptors is done in microtiter plates using [^3 H]OT, at various concentrations, in an assay buffer of 50.0 mM Tris.HCI, pH 7.4 and containing 5.0 mM MgCl2, and a mixture of protease inhibitors: BSA, 0.1 mg; aprotinin, 1.0 mg; 1,10-phenanthroline, 2.0 mg; […], 10.0 mg; and PMSF, 0.3 mg per 100 ml of buffer solution. Non-specific binding is determined in the presence of 1.0 uM unlabeled OT. The binding reaction is terminated after 60 minutes, at 22° C., by rapid filtration through glass fiber filters using a Brandel® cell harvester (Biomedical Research and Development Laboratories, Inc., Gaithersburg, Md.). Competition experiments are conducted at equilibrium using 1.0 nM [^3 H]OT and varying the concentration of the displacing agents. The concentrations of agent displacing 50% of [^3 H]OT at its sites (IC50) are calculated by a computer assisted LUNDON-2 program (LUNDON SOFTWARE INC., Ohio, USA).

T1 sequence (Q00788 whole entry): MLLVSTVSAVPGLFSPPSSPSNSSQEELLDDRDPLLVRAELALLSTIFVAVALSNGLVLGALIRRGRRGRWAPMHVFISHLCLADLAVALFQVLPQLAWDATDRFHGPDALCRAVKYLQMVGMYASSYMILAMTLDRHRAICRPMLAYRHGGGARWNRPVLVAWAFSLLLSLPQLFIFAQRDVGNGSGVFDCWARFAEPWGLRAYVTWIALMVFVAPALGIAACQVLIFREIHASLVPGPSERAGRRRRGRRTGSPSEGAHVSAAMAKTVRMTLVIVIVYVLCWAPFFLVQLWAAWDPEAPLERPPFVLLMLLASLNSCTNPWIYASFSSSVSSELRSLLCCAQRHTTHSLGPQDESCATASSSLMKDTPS
T2 sequence (P30560 whole entry): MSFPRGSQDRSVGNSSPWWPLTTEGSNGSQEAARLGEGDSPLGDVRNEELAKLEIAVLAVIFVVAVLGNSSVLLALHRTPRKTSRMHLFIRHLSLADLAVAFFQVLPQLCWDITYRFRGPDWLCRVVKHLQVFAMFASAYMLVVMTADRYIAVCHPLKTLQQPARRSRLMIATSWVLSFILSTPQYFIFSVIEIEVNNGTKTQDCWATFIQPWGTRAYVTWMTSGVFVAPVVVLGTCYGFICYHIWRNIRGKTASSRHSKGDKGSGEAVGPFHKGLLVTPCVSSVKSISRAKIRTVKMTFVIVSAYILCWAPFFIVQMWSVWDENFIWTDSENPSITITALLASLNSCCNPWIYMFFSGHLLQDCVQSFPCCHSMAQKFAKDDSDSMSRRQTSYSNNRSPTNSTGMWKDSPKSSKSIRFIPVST

IC50 ([1]; rat kidney medullary V2 receptors)	IC50 ([2]; rat hepatic V1 receptors)	inhibition at 1 µM [3]	V2 % ([1]; rat kidney V2, "at μM" (concentration not given))	inhibition at 1 µM ([2]; 2 h, rat hepatic V1)	IC50 [3]	inhibition at 10 µM [3]	inhibition at 1 µM ([1]; rat kidney V2, at 1 μM)	inhibition at 10 µM ([1]; rat kidney V2, at 10 μM)	inhibition at 10 µM ([2]; 2 h, rat hepatic V1, at 10 μM)	Structure (SMILES)
54 nM	240 nM	12%								Cc1ccc(F)cc1C(=O)Nc1ccc(C(=O)N2Cc3ccccc3Oc3ccccc32)cn1 [Example 1, N-[5-(Dibenz[b,f][1,4]oxazepin-10(11H)-ylcarbonyl)-2-pyridinyl]-5-fluoro-2-methylbenzamide]
			90%	100%	610 nM	76%				O=C(Nc1ccc(C(=O)N2Cc3ccccc3Cc3ccccc32)cn1)c1ccccc1-c1ccccc1 [Example 12, N-[5-[(6,11-Dihydro-5H-dibenz[b,e]azepin-5-yl)carbonyl]-2-pyridinyl][1,1'-biphenyl]-2-carboxamide]
				100%	113 nM	94%	39%			O=C(c1ccc(-c2ccccc2)cc1)N1Cc2ccccc2Nc2ccccc21 [Example 25]
		37%						16%	10%	O=C(c1ccccc1)c1ccc(C(=O)N2Cc3ccccc3CCc3ccccc32)cc1 [Example 33, 5-(4-Benzoylbenzoyl)5,6,11,12-tetrahydrodibenz[b,f]azocine]

Source: patent US5849735A, “Tricyclic benzazepine vasopressin antagonists” (American Cyanamid Company, priority 1995, dated 1998)
